Values of other authors, collected in patent publication US7193081B2, “Process for preparation of cyclic prodrugs of PMEA and PMPA” (Metabasis Therapeutics, Inc., priority 2002, dated 2007).

Experiments:
HIV = conditions: against HIV
hepatitis B = conditions: against hepatitis B

Row | Compound | antiviral activity (HIV) | antiviral activity (hepatitis B)
1 | C[C@H](Cn1cnc2c(N)ncnc21)OCP(=O)(O)O [PMPA, (R)-9-(2-phosphonyl-methoxypropyl)adenine] | exhibit antiviral activity | exhibit antiviral activity
2 | Nc1ncnc2c1ncn2CCOCP(=O)(O)O [PMEA, 9-(2-phosphonylmethoxyethyl)adenine] | exhibit antiviral activity | exhibit antiviral activity
